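Test compounds were applied to cells in 96-well plates for 48 hours at 5 doses. Here, GI50 denotes the concentration required for 50% inhibition of growth.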 Active and inactive are the calls of the source. Rule as the data show it: active = GI50 up to about 1.1 µM and inactive = higher.
Legend:
Assay in all cases: DTP human tumour cell line panel, 48 h
OVCAR-8 = test system: OVCAR-8
SF-268 = test system: SF-268
MOLT-4 = test system: MOLT-4
SK-MEL-2 = test system: SK-MEL-2
MCF7 = test system: MCF7
Malme-3M = test system: Malme-3M
UACC-62 = test system: UACC-62
Hs-578T = test system: Hs-578T
SK-OV-3 = test system: SK-OV-3
BT-549 = test system: BT-549
M14 = test system: M14
SF-295 = test system: SF-295
LOX IMVI = test system: LOX IMVI
EKVX = test system: EKVX
TK-10 = test system: TK-10
SNB-19 = test system: SNB-19
RPMI-8226 = test system: RPMI-8226
RXF 393 = test system: RXF 393
A549 = test system: A549
SK-MEL-5 = test system: SK-MEL-5

| Compound | GI50 (OVCAR-8) | GI50 (SF-268) | GI50 (MOLT-4) | GI50 (SK-MEL-2) | GI50 (MCF7) | GI50 (Malme-3M) | GI50 (UACC-62) | GI50 (Hs-578T) | GI50 (SK-OV-3) | GI50 (BT-549) | GI50 (M14) | GI50 (SF-295) | GI50 (LOX IMVI) | GI50 (EKVX) | GI50 (TK-10) | GI50 (SNB-19) | GI50 (RPMI-8226) | GI50 (RXF 393) | GI50 (A549) | GI50 (SK-MEL-5) |
| --- | --- | --- | --- | --- | --- | --- | --- | --- | --- | --- | --- | --- | --- | --- | --- | --- | --- | --- | --- | --- |
| COC(=O)C1C(=O)C(C(=O)OC)C2CCC1N2C (stereo not given) | 27.9 µM (inactive) | 96.6 µM (inactive) | 9.08 µM (inactive) | 20 µM (inactive) | 33.6 µM (inactive) | 20.2 µM (inactive) | 40.3 µM (inactive) | 52.2 µM (inactive) | 28.4 µM (inactive) | 0.628 µM (active) | 29.8 µM (inactive) | > 100 µM (inactive) | 35.4 µM (inactive) | > 100 µM (inactive) | 62.4 µM (inactive) | > 100 µM (inactive) | 35 µM (inactive) | 24.9 µM (inactive) | > 100 µM (inactive) | > 100 µM (inactive) |
| O=c1[nH]c(=S)[nH]cc1CN1CCOCC1 | > 100 µM (inactive) | > 100 µM (inactive) | > 100 µM (inactive) | > 100 µM (inactive) | > 100 µM (inactive) | > 100 µM (inactive) | > 100 µM (inactive) | > 100 µM (inactive) | > 100 µM (inactive) | > 100 µM (inactive) | > 100 µM (inactive) | > 100 µM (inactive) | > 100 µM (inactive) | > 100 µM (inactive) | > 100 µM (inactive) | > 100 µM (inactive) | > 100 µM (inactive) | > 100 µM (inactive) | > 100 µM (inactive) | > 100 µM (inactive) |
| O=C(OCCNC(=O)N1CC1)OCCNC(=O)N1CC1 | > 10 µM (inactive) | > 10 µM (inactive) | > 10 µM (inactive) | > 10 µM (inactive) | > 10 µM (inactive) | > 10 µM (inactive) | > 10 µM (inactive) | > 10 µM (inactive) | > 10 µM (inactive) | > 10 µM (inactive) | > 10 µM (inactive) | > 10 µM (inactive) | > 10 µM (inactive) | > 10 µM (inactive) | > 10 µM (inactive) | > 10 µM (inactive) | > 10 µM (inactive) | > 10 µM (inactive) | > 10 µM (inactive) | > 10 µM (inactive) |
| C[N+](CCCl)(CCCl)Cc1cccc2cccc([N+](=O)[O-])c12 | 43.5 µM (inactive) | > 100 µM (inactive) | 60.5 µM (inactive) | > 100 µM (inactive) | 38.2 µM (inactive) | 81.1 µM (inactive) | > 100 µM (inactive) | > 100 µM (inactive) | > 100 µM (inactive) | > 100 µM (inactive) | > 100 µM (inactive) | > 100 µM (inactive) | 48.1 µM (inactive) | > 100 µM (inactive) | > 100 µM (inactive) | 75.2 µM (inactive) | 40.5 µM (inactive) | > 100 µM (inactive) | 97.3 µM (inactive) | 53.3 µM (inactive) |
| CC(=O)OC[C@@H](OC(C)=O)[C@H](OC(C)=O)[C@@H]1OC(C)(C)O[C@@H]1C1SCCCS1 | > 100 µM (inactive) | > 100 µM (inactive) | > 100 µM (inactive) | > 100 µM (inactive) | > 100 µM (inactive) | > 100 µM (inactive) | > 100 µM (inactive) | > 100 µM (inactive) | > 100 µM (inactive) | > 100 µM (inactive) | > 100 µM (inactive) | > 100 µM (inactive) | > 100 µM (inactive) | > 100 µM (inactive) | > 100 µM (inactive) | > 100 µM (inactive) | > 100 µM (inactive) | > 100 µM (inactive) | > 100 µM (inactive) | > 100 µM (inactive) |

— ChEMBL document CHEMBL1201862, “PubChem BioAssay data set” (2004)
